We go through 33 compounds from a melting point compilation (Tetko et al.; mined from patent text by program, amines drawn as free bases though some values may be those of a salt).

Structures are written as SMILES.

In turn, `CC(C)(C)OC(=O)N1CCc2cc(OCc3ccccc3)c(OCc3ccccc3)cc2C1Cc1ccc([N+](=O)[O-])cc1` (stereo not drawn) gave a melting point of 150 to 152 °C.

`CCCc1nn(C)c2c(=O)n(CCCNc3ccc(OC(C)(C)C(=O)O)cc3)c(CC)nc12` had a melting point of 124 to 126 °C.

The compound `CC(=O)Nc1ccccc1CCc1ccccn1` registered a melting point of 230 to 232 °C.

`CC1(C)[C@@H](CNS(C)(=O)=O)CC[C@@]1(C)NCC(=O)N1C[C@@H](F)C[C@H]1C#N` returned a melting point of 157 to 160 °C.

`CC(C)(C)c1cc(Oc2c(Cl)cc(C(F)(F)F)cc2Cl)n[nH]1` yielded a melting point of 170 to 172 °C.

Regarding `NC(=NC(=O)Cn1c(Cl)ccc1Cl)NC(=O)c1ccc(Cl)cc1`, the melting point is 198 to 200 °C.

Turning to `COC(=O)c1ccc(O)c(C(=O)CC(=O)c2ccccc2OC(C)C)c1`, the melting point was in the range of 105 to 107 °C.

In turn, `CC(=O)Oc1ccc(-c2nc3n(c2-c2ccc(OC(C)=O)cc2)CCS3)cc1` registered a melting point of 172 to 173 °C.

As to `CC(C)(C)OC(=O)Nc1ccn2nc(N3CCOCC3)nc2c1`, the melting point is 92 to 93 °C.

As to `COc1cc2nc(Cn3cnc4c(N)ncnc43)n(-c3ccccc3Cl)c(=O)c2cc1OC`, the melting point lay within 282 to 283 °C.

Compound `O=C(Nc1cccnc1)c1cccc(-c2cccc3oc(Cc4cccc(C(F)(F)F)c4)cc23)c1` showed a melting point of 127 to 128 °C.

Consider `COc1ccc(OC)c(Cc2cccc(N)c2)c1`, for which the melting point was 81 to 84 °C.

Compound `CN1CCN(c2ccc(C(=O)NCCCCCCCCCCCO[N+](=O)[O-])cn2)CC1` came in with a melting point of 95 to 96 °C.

Take `CCC(CC)C(NC(=O)c1ccc(Cl)cc1)Nc1c(Nc2cccnc2)c(=O)c1=O` (stereo not drawn): the melting point fell in the range of 232 to 233 °C.

`CCOC(=O)C1(Nc2cc(Cl)cc(Cl)c2)CC(C(=O)O)Nc2cc(Cl)cc(Cl)c21` (stereo not drawn) had a melting point of 92 to 94 °C.

Consider `CCOC(=O)C(Br)=C(Br)c1ccc(Cl)cc1`, for which the melting point was in the range of 67 to 68 °C.

Turning to `CCOC(=O)/C=C/c1cc(OC)cc(OC)c1C#N`, the melting point was in the range of 119 to 122 °C.

`COc1cc(-c2nc(N)nn2CCC2CCCCC2)c(OC)cc1C`: the melting point lay in the range of 136 to 137 °C.

Compound `COc1ccc(-c2nc(SCCCSc3nc(-c4ccc(OC)cc4)c(-c4ccc(OC)cc4)[nH]3)[nH]c2-c2ccc(OC)cc2)cc1` gave a melting point of 128 to 130 °C.

On to `CC(=O)O[C@H](CCc1ccc([N+](=O)[O-])cc1)C(=O)O`, for which the melting point lay within 108 to 109 °C.

On to `N#Cc1nn(-c2c(Cl)cc(C(F)(F)F)cc2Cl)cc1C(=O)C(F)(F)C(F)(F)F`, for which the melting point is 120 °C.

On to `CNC(=O)c1ccccc1Nc1nc(Nc2ccc3c(c2)CCCC(=O)N3C)ncc1Br`, for which the melting point lay within 238 to 240 °C.

In turn, `N#CC(C(=O)Nc1cccnc1)C(=O)c1nn(-c2ccccc2)c2c1COc1ccccc1-2` (stereo not drawn) registered a melting point of 280 to 282 °C.

In the case of `CC1(C)C2CCC1(CN1CN(CC34CCC(CC3)C4(C)C)CN(CC34CCC(CC3)C4(C)C)C1)CC2`, the melting point lay in the range of 175 to 180 °C.

For `CCOCc1nc2c(N)nc(C)c(C)c2n1CCCN`, the melting point came to 127 °C.

Take `O=C(O)CCCCCCc1cnc2ccccc2c1`: the melting point lay in the range of 120 to 121 °C.

In the case of `Cc1cc2cc(CN3CCCC3)cnc2cc1NC(=O)c1ccc(-c2ccc(Cl)cc2)c(F)c1`, the melting point lay in the range of 181 to 185 °C.

The compound `CCCC(=NOCC)C1=C(O)CC(c2c(C)c(C)c(O)c(C)c2C)CC1=O` (stereo not drawn) registered a melting point of 134 °C.

With `O=C1CC2(CN1)CC(=O)c1cc(F)ccc12` (stereo not drawn), the melting point lay within 198 to 202 °C.

Take `CCON1C(C)(C)CC(O)CC1(C)C`: the melting point fell in the range of 86 to 88 °C.

Take `COc1ccc(-c2cc3cc(F)c(F)cc3[nH]2)cc1NCc1ccc(C#N)cc1`: the melting point lay in the range of 158 to 159 °C.

The compound `Fc1ccc(CBr)c(I)c1` gave a melting point of 71 to 73 °C.

In turn, `Cc1ccccc1CCCc1c(C)nc(N)nc1N` gave a melting point of 213 to 215 °C.

By melting point is commonly meant the temperature of the solid-liquid transition.
